From US6905840B1, “Double motor mutant assay for antifungal agents” (Cytokinetics, Inc., priority 2003, dated 2005)

Key:
[1] = tested on: kip3-20(ts) dyn1Δ (DS765) double mutant; test: Benomyl suppression of lethality of the kip3(ts) dyn1 double mutant, spot growth on YPD; type: cell-based, Saccharomyces cerevisiae; settings: 37° C., solid YPD medium with 1% DMSO, 5 or 10 μg/ml benomyl, 3 d; little growth in the absence of benomyl
Method: Since one phenotype of the kip3 single mutant and the kip3(ts) dyn1 double mutant is increased microtubule abundance, it was tested whether the microtubule-depolymerizing drug benomyl could suppress the lethality of the kip3(ts) dyn1 double mutant.

[2] = tested on: kip3-30(ts) kar3Δ (DS752) double mutant; test: Benomyl suppression of lethality of the kip3-30(ts) kar3 double mutant, spot growth on YPD; type: cell-based, Saccharomyces cerevisiae; settings: medium containing a low concentration of benomyl, restrictive temperature (FIG. 1C)

Structure (SMILES): CCCCNC(=O)n1c(NC(=O)OC)nc2ccccc21 [benomyl]
- growth of the kip3(ts) dyn1 double mutant (suppression of lethality) [1]: significant growth
- lethality of the kip3-30(ts) kar3 double mutant [2]: partially suppressed
